Measurements from patent publication US7098220B2, “Imidazopyridine derivatives, preparation method and pharmaceutical compositions containing same” (Les Laboratoires Servier, priority 2002, dated 2006).

What was measured:
[1] = test system: obese ob/ob mouse; assay: Hypolipaemic activity in the obese ob/ob mouse; type: in vivo
Protocol: The products of the invention were tested in vivo in the obese ob/ob mouse, used as a model of obesity-associated insulin resistance.

[2] = test system: AMPK; assay: AMPK activity in a cell model: hepatocytes isolated from rats; type: cell-based, rat; conditions: 500 μM, after 30 minutes, SAMS peptide phosphorylation with [γ-32P]-ATP
Protocol: AMPK Activity in a Cell Model: Hepatocytes Isolated from Rats
The hepatocytes are isolated according to the technique of Berry and Friend [J. Cell Biol, 43, 506–520 (1969)]. The AMPK activity was measured according to the method described by Davies el al. [Eur. J. Biochem., 186, 123–128 (1989)]. The latter involves phosphorylation starting from [γ-^32P]-ATP of a peptide substrate (SAMS), based on the sequence surrounding the site phosphorylated by the AMPK of the ACC. The reaction for measuring the AMPK activity ends with the deposition of an aliquot of the reaction medium on a phosphocellulose paper (Whatman P81), on which the SAMS peptide is fixed and the radioactivity of which is measured after washing.
By way of example, the compound of Example 4 activates AMPK, after 30 minutes at a concentration of 500 μM, by 312% (compared with the base value), whereas the same concentration of AICA riboside, used as reference, under the same conditions, activates it by 178%.

SMILES	reduction of triglycerides ([1]; 250 mg/kg per os)	AMPK activation (compared with the base value) [2]	reduction of triglycerides ([1]; 125 mg/kg per os)
CN(C)C(=N)N=C(N)N [metformin]	the same reduction is obtained		
NC(=O)c1ncn([C@@H]2O[C@H](CO)[C@@H](O)[C@H]2O)c1N [AICA riboside]		178%	
Nc1nc2cccnc2n1C1CCCCCC1 [Example 4, 3-Cycloheptyl-3H-imidazo[4,5-b]pyridine-2-amine]		312%	significantly reduces the triglycerides
